Data reported in patent US8513232B2, “Substituted spirocyclic piperidine derivatives as histamine-3 (H3) receptor ligands” (Cephalon, Inc., priority 2008, dated 2013).
Like-named read-outs stand apart in the source and are kept apart here.

Assays:
human H3 receptor = molecular target: T1, human H3 receptor (Homo sapiens, UniProt Q9Y5N1); assay: Human H3 radioligand binding ([3H]-N-alpha-methylhistamine, SPA)
T1 construct: expressed in transfected cells
Method in brief: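 Compounds (0.01 nM-30 μM) competed with approximately 1 nM [3H]-N-alpha-methylhistamine for human H3 receptor in membranes of stably transfected CHO cells, 10 μg protein per well, in Tris-HCl pH 7.4/MgCl2/BSA buffer for 4 h at room temperature. Bound radioligand measured by scintillation proximity; 10 μM clobenpropit gave non-specific binding.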

[1] = molecular target: T2, rat histamine H3 receptor (Rattus norvegicus, UniProt Q9QYN8); assay: Rat H3 radioligand binding ([3H]-N-alpha-methylhistamine, SPA)
T2 construct: encoding the entire 445-amino-acid rat histamine H3 receptor; expressed in transfected cells; membrane preparation
Method in brief: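 SPA-bead binding assay using [3H]-N-alpha-methylhistamine (approximately 1 nM final) with test compounds from 0.01 nM to 30 μM. Rat H3 receptor membranes came from stably transfected CHO-A3 cells; incubation ran 4 h at room temperature, in the dark, in Tris pH 7.4 buffer with MgCl2 and BSA. Clobenpropit (10 μM) gave non-specific binding.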

[2] = human H3 binding, Table D, read-out: Human H3 Ki
[3] = rat H3 binding, Table D, read-out: Rat H3 Ki
[4] = Table A, human H3 binding, read-out: Human Ki
[5] = Table A, rat H3 binding, read-out: Rat Ki
[6] = Human H3 binding, Table B, Examples 136-362, read-out: hum H3 binding Ki
[7] = Rat H3 binding, Table B, Examples 136-362, read-out: rat H3 binding Ki
[8] = Table C, human H3 binding, read-out: Human H3 Ki
[9] = Table C, rat H3 binding, read-out: Rat H3 Ki

T2 sequence (Q9QYN8 whole entry): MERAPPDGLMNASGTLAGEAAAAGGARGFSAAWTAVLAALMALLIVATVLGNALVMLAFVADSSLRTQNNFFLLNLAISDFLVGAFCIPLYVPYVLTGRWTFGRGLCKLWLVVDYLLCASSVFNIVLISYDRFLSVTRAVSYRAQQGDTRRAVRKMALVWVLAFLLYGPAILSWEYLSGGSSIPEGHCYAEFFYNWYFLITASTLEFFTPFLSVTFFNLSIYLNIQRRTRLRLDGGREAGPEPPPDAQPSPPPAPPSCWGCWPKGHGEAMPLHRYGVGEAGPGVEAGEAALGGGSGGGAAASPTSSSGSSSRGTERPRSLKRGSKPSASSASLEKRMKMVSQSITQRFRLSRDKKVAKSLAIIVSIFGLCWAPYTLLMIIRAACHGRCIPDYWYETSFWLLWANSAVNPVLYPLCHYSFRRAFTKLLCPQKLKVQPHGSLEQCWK
T1 sequence (Q9Y5N1 whole entry): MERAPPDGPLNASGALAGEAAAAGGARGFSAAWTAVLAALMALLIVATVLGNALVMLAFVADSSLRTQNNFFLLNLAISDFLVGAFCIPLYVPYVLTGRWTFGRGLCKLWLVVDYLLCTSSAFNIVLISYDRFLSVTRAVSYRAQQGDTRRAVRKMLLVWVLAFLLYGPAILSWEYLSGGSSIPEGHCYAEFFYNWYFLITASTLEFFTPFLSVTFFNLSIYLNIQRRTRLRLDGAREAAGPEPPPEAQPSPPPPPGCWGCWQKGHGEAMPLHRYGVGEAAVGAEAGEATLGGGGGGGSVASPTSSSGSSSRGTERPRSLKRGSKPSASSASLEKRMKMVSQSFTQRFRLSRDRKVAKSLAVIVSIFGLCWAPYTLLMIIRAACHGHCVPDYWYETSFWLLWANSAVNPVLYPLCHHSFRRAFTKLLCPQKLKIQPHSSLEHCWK

Structure (SMILES) | melting point | Ki (human H3 receptor; [2]) | Ki [1, 3] | other results
CNC(=O)c1ccc(-c2ccc3c(c2)COC2(CCN(C4CCC4)CC2)O3)c(OC)c1 [Example 682] | 87 to 90 °C | < 200 nM | < 200 nM | 
O=C1CCC(=O)N1CCCOc1ccc2c(c1)CCC1(CCN(C3CCC3)CC1)O2 [Example 460] | 235 to 237 °C |  |  | Ki (human H3 receptor; read-out: Human H3 Ki): < 200 nM; Ki ([1]; read-out: Rat H3 kI): < 200 nM
O=c1ccc(CCc2ccc3c(c2)COC2(CCN(C4CCC4)CC2)O3)c[nH]1 [Example 528] | 183 to 185 °C |  |  | Ki (human H3 receptor; read-out: Human H3 Ki): < 200 nM; Ki ([1]; read-out: Rat H3 kI): < 200 nM
CN(C)C(=O)N1CCC(COc2ccc3c(c2)CCC2(CCN(C4CCC4)CC2)O3)CC1 [Example 576] | 230 to 232 °C | < 200 nM | < 200 nM | 
CCc1nc(OC)ccc1-c1ccc2c(c1)COC1(CCN(C3CCC3)CC1)O2 [Example 789] | 59 to 61 °C | < 200 nM | < 200 nM | 
c1ccc(Nc2ccc3c(c2)COC2(CCN(C4CCC4)CC2)O3)nc1 [Example 126] | 159 to 161 °C |  |  | Ki (human H3 receptor; [4]): < 200 nM; Ki [1, 5]: < 200 nM
O=C(NC1CCOCC1)c1ccc(-c2ccc3c(c2)COC2(CCN(C4CCC4)CC2)O3)s1 [Example 631] | 209 to 211 °C | < 200 nM | < 200 nM | 
COCCNC(=O)c1ccc(-c2ccc3c(c2)COC2(CCN(C4CCC4)CC2)O3)cc1Cl [Example 330] | 234 to 235 °C |  |  | Ki (human H3 receptor; [6]): < 200 nM; Ki [1, 7]: < 200 nM
O=C(N[C@@H]1CCOC1)c1ccc(-c2ccc3c(c2)COC2(CCN(C4CCC4)CC2)O3)cc1Cl [Example 605] | 189 to 191 °C | < 200 nM | < 200 nM | 
c1cnc(N2CCN(c3ccc4c(c3)CCC3(CCN(C5CCC5)CC3)O4)CC2)cn1 [Example 370] | 168 to 169 °C |  |  | Ki (human H3 receptor; [8]): < 200 nM; Ki [1, 9]: < 200 nM
COC(=O)N1CCN(c2ccc3c(c2)CCC2(CCN(C4CCC4)CC2)O3)CC1 [Example 373] | 157 to 158 °C |  |  | Ki (human H3 receptor; [8]): < 200 nM; Ki [1, 9]: < 200 nM
COc1ccc2nc(C)n(-c3ccc4c(c3)COC3(CCN(C5CCC5)CC3)O4)c(=O)c2c1 [Example 794] | 155 to 157 °C | < 200 nM | < 200 nM | 
CC(C)(C)OC(=O)N1CC[C@@H](Oc2ccc3c(c2)CCC2(CCN(C4CCC4)CC2)O3)C1 [Example 442] | 280 to 283 °C |  |  | Ki (human H3 receptor; [8]): < 200 nM; Ki [1, 9]: < 200 nM
O=C(Nc1ccc2c(c1)COC1(CCN(C3CCC3)CC1)O2)c1ccnc(N2CCOCC2)c1 [Example 313] | 205 to 207 °C |  |  | Ki (human H3 receptor; [6]): < 200 nM; Ki [1, 7]: < 200 nM
CCc1cc(-c2ccc3c(c2)COC2(CCN(C4CCC4)CC2)O3)c(C)[nH]c1=O [Example 808] | 211 to 213 °C | < 200 nM | < 200 nM | 
c1cc2c(cc1N1CCNCC1)CCC1(CCN(C3CCC3)CC1)O2 [Example 377] | 116 to 118 °C |  |  | Ki (human H3 receptor; [8]): < 200 nM; Ki [1, 9]: < 200 nM
c1cc2c(cc1OCC1CC1)CCC1(CCN(C3CCC3)C1)O2 (stereo not drawn) [Example 446] | 177 to 178 °C |  |  | Ki (human H3 receptor; read-out: Human H3 Ki): 200 to 1000 nM; Ki ([1]; read-out: Rat H3 kI): 200 to 1000 nM
O=C(NC[C@@H]1CCCO1)c1c(F)cc(-c2ccc3c(c2)COC2(CCN(C4CCC4)CC2)O3)cc1F [Example 599] | 142 to 145 °C | < 200 nM | < 200 nM | 
COc1ncc(-c2ccc3c(c2)COC2(CCN(C4CCC4)CC2)O3)c(C)c1C [Example 800] | 233 to 235 °C | < 200 nM | < 200 nM | 
c1cncc(Oc2ccc3c(c2)CCC2(CCN(C4CCC4)CC2)O3)c1 [Example 257] | 255 to 257 °C |  |  | Ki (human H3 receptor; [6]): < 200 nM; Ki [1, 7]: < 200 nM

Structure (SMILES) | melting point | Ki (human H3 receptor; [2]) | Ki [1, 3] | other results
CN(C)C(=O)c1ccc(-c2ccc3c(c2)COC2(CCN(C4CCC4)CC2)O3)cc1Cl [Example 608] | 80 to 82 °C | < 200 nM | < 200 nM | 
CS(=O)(=O)N1CCC(COc2ccc3c(c2)CCC2(CCN(C4CCC4)CC2)O3)CC1 [Example 335] | 159 to 161 °C |  |  | Ki (human H3 receptor; [6]): < 200 nM; Ki [1, 7]: < 200 nM
O=C(Nc1ccc2c(c1)CCC1(CCN(C3CCC3)CC1)O2)c1ccnnc1 [Example 289] | 213 to 215 °C |  |  | Ki (human H3 receptor; [6]): < 200 nM; Ki [1, 7]: < 200 nM
COCCN(C)C(=O)c1ccc(-c2ccc3c(c2)CCC2(CCN(C4CCC4)CC2)O3)cc1Cl [Example 575] | 101 to 104 °C | < 200 nM | < 200 nM | 
CNC(=O)c1ccc(Nc2ccc3c(c2)COC2(CCN(C4CCC4)CC2)O3)nc1 [Example 130] | 211 to 213 °C |  |  | Ki (human H3 receptor; [4]): < 200 nM; Ki [1, 5]: < 200 nM
c1ccc(COc2ccc(-c3ccc4c(c3)CCC3(CCN(C5CCC5)CC3)O4)cn2)cc1 [Example 533] | 115 to 117 °C |  |  | Ki (human H3 receptor; read-out: Human H3 Ki): < 200 nM; Ki ([1]; read-out: Rat H3 kI): < 200 nM
COc1ccc(-c2ccc3c(c2)COC2(CCN(C4CCC4)CC2)O3)nc1 [Example 650] | 123 to 126 °C | < 200 nM | < 200 nM | 
COc1ccc(-c2ccc3c(c2)COC2(CCN(C(C)(C)C)CC2)O3)cn1 [Example 732] | 152 to 154 °C | < 200 nM | < 200 nM | 
O=C(NCCO)c1ccc(-c2ccc3c(c2)COC2(CCN(C4CCC4)CC2)O3)cc1F [Example 163] | 166 to 168 °C |  |  | Ki (human H3 receptor; [6]): < 200 nM; Ki [1, 7]: < 200 nM
O=C(NC1CCOCC1)c1ccc(-c2ccc3c(c2)CCC2(CCN(C4CCC4)CC2)O3)cc1 [Example 361] | 205 to 207 °C |  |  | Ki (human H3 receptor; [6]): < 200 nM; Ki [1, 7]: < 200 nM
NC(=O)c1ccc(Oc2ccc3c(c2)CCC2(CCN(C4CCC4)CC2)O3)nc1 [Example 390] | 191 to 193 °C |  |  | Ki (human H3 receptor; [8]): < 200 nM; Ki [1, 9]: < 200 nM
c1cnc(Oc2ccc3c(c2)CCC2(CCN(C4CCC4)CC2)O3)cn1 [Example 415] | 256 to 258 °C |  |  | Ki (human H3 receptor; [8]): < 200 nM; Ki [1, 9]: < 200 nM
CCN(C)C(=O)c1ccc(-c2ccc3c(c2)COC2(CCN(C4CCC4)CC2)O3)cc1 [Example 30] | 140 to 141 °C |  |  | Ki (human H3 receptor; [4]): < 200 nM; Ki [1, 5]: < 200 nM
Cc1nc2ccccc2c(=O)n1-c1ccc2c(c1)COC1(CCN(C3CCC3)CC1)O2 [Example 787] | 206 to 207 °C | < 200 nM | < 200 nM | 
CNC(=O)c1cnc(-c2ccc3c(c2)CCC2(CCN(C4CCC4)CC2)O3)s1 [Example 218] | 201 to 203 °C |  |  | Ki (human H3 receptor; [6]): < 200 nM; Ki [1, 7]: < 200 nM
COCCNC(=O)c1ccc(-c2ccc3c(c2)CCC2(CCN(C4CCC4)CC2)O3)cc1C [Example 233] | 59.8 to 60.9 °C |  |  | Ki (human H3 receptor; [6]): < 200 nM; Ki [1, 7]: < 200 nM
O=C(c1ccc(-c2ccc3c(c2)COC2(CCN(C4CCC4)CC2)O3)s1)N1CCOCC1 [Example 643] | 166 to 167 °C | < 200 nM | < 200 nM | 
O=C1CCCN1CCCOc1ccc2c(c1)CCC1(CCN(C3CCC3)CC1)O2 [Example 462] | 196 to 198 °C |  |  | Ki (human H3 receptor; read-out: Human H3 Ki): < 200 nM; Ki ([1]; read-out: Rat H3 kI): < 200 nM
CN(C)C(=O)N1CCN(c2ccc3c(c2)CCC2(CCN(C4CCC4)C2)O3)CC1 (stereo not drawn) [Example 339] | 231 to 233 °C |  |  | Ki (human H3 receptor; [6]): < 200 nM; Ki [1, 7]: < 200 nM
FC1CCN(c2ccc3c(c2)CCC2(CCN(C4CCC4)CC2)O3)CC1 [Example 397] | > 265 °C (dec.) |  |  | Ki (human H3 receptor; [8]): < 200 nM; Ki [1, 9]: < 200 nM
